Values quoted from earlier work in EP1027077B1, “MAGNETIC RESONANCE IMAGING AGENTS FOR THE DELIVERY OF THERAPEUTIC AGENTS” (Research Corporation Technologies, Inc, priority 1997, dated 1999).

Conditions: thermodynamic stability of the Gd(III) chelate; background statement

| stability constant (K) / formation constant, logK | SMILES |
| --- | --- |
| 22.4 | O=C([O-])CN(CCN(CC(=O)[O-])CC(=O)[O-])CCN(CC(=O)[O-])CC(=O)[O-].[Gd+3] [Gd(DTPA)^2-] |
| 28.5 | O=C([O-])CN1CCN(CC(=O)[O-])CCN(CC(=O)[O-])CCN(CC(=O)[O-])CC1.[Gd+3] [Gd-DOTA] |
